Test results: BigSolDB 2.1

SMILES: O=[N+]([O-])c1cccc2cccc([N+](=O)[O-])c12
- solubility (mole fraction) (in ethyl acetate, 291.15 K): 0.0072
- solubility (mole fraction) (in ethyl acetate, 293.15 K): 0.00765
- solubility (mole fraction) (in ethyl acetate, 295.65 K): 0.00822
- solubility (mole fraction) (in ethyl acetate, 300.65 K): 0.00947
- solubility (mole fraction) (in ethyl acetate, 303.15 K): 0.0102
- solubility (mole fraction) (in ethyl acetate, 305.65 K): 0.011
- solubility (mole fraction) (in ethyl acetate, 308.15 K): 0.0119
- solubility (mole fraction) (in isopropanol, 273.15 K): 8.97e-05
- solubility (mole fraction) (in isopropanol, 275.65 K): 0.000103
- solubility (mole fraction) (in isopropanol, 278.15 K): 0.000126
- solubility (mole fraction) (in isopropanol, 280.65 K): 0.000146
- solubility (mole fraction) (in isopropanol, 283.15 K): 0.000173
- solubility (mole fraction) (in isopropanol, 285.65 K): 0.000198
- solubility (mole fraction) (in isopropanol, 288.15 K): 0.000224
- solubility (mole fraction) (in isopropanol, 291.15 K): 0.000265
- solubility (mole fraction) (in isopropanol, 293.15 K): 0.000296
- solubility (mole fraction) (in isopropanol, 295.65 K): 0.000334
- solubility (mole fraction) (in isopropanol, 298.15 K): 0.000382
- solubility (mole fraction) (in isopropanol, 300.65 K): 0.00043
- solubility (mole fraction) (in isopropanol, 303.15 K): 0.000482
- solubility (mole fraction) (in isopropanol, 305.65 K): 0.000536
- solubility (mole fraction) (in isopropanol, 308.15 K): 0.000605
- solubility (mole fraction) (in methanol, 273.15 K): 0.000293
- solubility (mole fraction) (in methanol, 275.65 K): 0.000327
- solubility (mole fraction) (in methanol, 278.15 K): 0.000356
- solubility (mole fraction) (in methanol, 280.65 K): 0.000398
- solubility (mole fraction) (in methanol, 283.15 K): 0.000429
- solubility (mole fraction) (in methanol, 285.65 K): 0.000485
- solubility (mole fraction) (in methanol, 288.15 K): 0.000536
- solubility (mole fraction) (in methanol, 291.15 K): 0.000599
- solubility (mole fraction) (in methanol, 293.15 K): 0.000641
- solubility (mole fraction) (in methanol, 295.65 K): 0.000696
- solubility (mole fraction) (in methanol, 298.15 K): 0.000758
- solubility (mole fraction) (in methanol, 300.65 K): 0.000821
- solubility (mole fraction) (in methanol, 303.15 K): 0.000891
- solubility (mole fraction) (in methanol, 305.65 K): 0.000971
- solubility (mole fraction) (in methanol, 308.15 K): 0.00106
- solubility (mole fraction) (in n-butanol, 273.15 K): 0.000155
- solubility (mole fraction) (in n-butanol, 275.65 K): 0.000178
- solubility (mole fraction) (in n-butanol, 278.15 K): 0.00021
- solubility (mole fraction) (in n-butanol, 280.65 K): 0.000237
- solubility (mole fraction) (in n-butanol, 283.15 K): 0.000272
- solubility (mole fraction) (in n-butanol, 285.65 K): 0.000314
- solubility (mole fraction) (in n-butanol, 288.15 K): 0.000356
- solubility (mole fraction) (in n-butanol, 291.15 K): 0.000411
- solubility (mole fraction) (in n-butanol, 293.15 K): 0.000449
- solubility (mole fraction) (in n-butanol, 295.65 K): 0.000504
- solubility (mole fraction) (in n-butanol, 300.65 K): 0.000623
- solubility (mole fraction) (in n-butanol, 303.15 K): 0.00069
- solubility (mole fraction) (in n-butanol, 305.65 K): 0.000759
- solubility (mole fraction) (in n-butanol, 308.15 K): 0.000832
- solubility (mole fraction) (in toluene, 273.15 K): 0.00119
- solubility (mole fraction) (in toluene, 275.65 K): 0.00125
- solubility (mole fraction) (in toluene, 278.15 K): 0.00138
- solubility (mole fraction) (in toluene, 280.65 K): 0.00157
- solubility (mole fraction) (in toluene, 283.15 K): 0.00171
- solubility (mole fraction) (in toluene, 285.65 K): 0.00188
- solubility (mole fraction) (in toluene, 288.15 K): 0.00205
- solubility (mole fraction) (in toluene, 291.15 K): 0.00235
- solubility (mole fraction) (in toluene, 293.15 K): 0.00255
- solubility (mole fraction) (in toluene, 295.65 K): 0.0028
- solubility (mole fraction) (in toluene, 298.15 K): 0.00309
- solubility (mole fraction) (in toluene, 300.65 K): 0.00344
- solubility (mole fraction) (in toluene, 303.15 K): 0.00382
- solubility (mole fraction) (in toluene, 305.65 K): 0.00427
- solubility (mole fraction) (in toluene, 308.15 K): 0.00468
